The values that follow are results of earlier work, collected in paper PMC5643385, “Probing ligand recognition of the opioid pan antagonist AT-076 at nociceptin, kappa, mu, and delta opioid receptors through structure-activity relationships” (Scientific Reports, 2017).

The IC50 is the concentration that gives 50% inhibition.

In the data set the test system is NOP. Details: method as in PMID 16451050. To be noted: Figure 1; cited from earlier work.

As for `O=C(NCCCN1CCC2(CC1)OCc1ccccc12)C1CCCN1Cc1ccccc1` (stereo not shown) [Compound C-24], the concentration for half-maximal inhibition (IC50) is 0.27 ± 0.038 nM.
